The values below come from patent EP1916301A1, “METHOD FOR […] USING MOLECULE ON THE RB PATHWAY AS INDEX AND MOLECULAR […]” (BANYU PHARMACEUTICAL CO., LTD., priority 2005, dated 2007).

In one experiment the test system is U-2 OS shRb cell. The experiment in a line: Cell cycle analysis by flow cytometry (DNA staining) after doxorubicin treatment, Rb knockdown cell. Format: cell-based. Here is the method: Into U-2 OS cells with wild-type Rb, pSuperior-puro.shRb vector was transfected using Funege 6. After the transfected cells were cultured for 24 hours, the cells were cultured such that the number of cells became about one fiftieth, and then, the cells were cultured for about two weeks in the presence of 1.0 µg/mL of puromycin. A cell that formed a colony was isolated by a cylinder cloning method. Hereinafter, the established Rb knockdown cell was referred to as U-2 OS shRb.
(§1) First, the U-2 OS cell and U-2 OS shRb cell were treated with 10 nM doxorubicin. The cells were collected after 24 hours and 48 hours, and the DNA of the cells were stained with the Cycle TESTTM PLUS DNA Reagent Kit (Becton Dickinson), and an analysis was carried out by flow cytometry.
(§2) Further, in what phase the respective cells were maintained in the cell cycle under the respective conditions is shown in Table 2. (Table 2)

In the next experiment the test system is U-2 OS cell. Briefly: Cell cycle analysis by flow cytometry (DNA staining) after doxorubicin treatment. Format: cell-based. The settings on record: for cell cycle arrest: 10 nM doxorubicin. Here is the method:
as §1, §2

The mark [1] stands for this setting: 10 nM doxorubicin for 24 hours, cell having an Rb shRNA introduced (Fig. 7).
[2] abbreviates: 10 nM doxorubicin for 48 hours, cell having an Rb shRNA introduced (Fig. 8).
Where [3] appears, read: 10 nM doxorubicin for 24 hours, cell having only a vector introduced (Fig. 4).
Where [4] appears, read: 10 nM doxorubicin for 48 hours, cell having only a vector introduced (Fig. 5).

On to `COc1cccc2c1C(=O)c1c(O)c3c(c(O)c1C2=O)C[C@@](O)(C(=O)CO)C[C@@H]3O[C@H]1C[C@H](N)[C@H](O)[C@H](C)O1` [doxorubicin], for which the “G1 (%)” value with U-2 OS shRb cell (setting [1]) is listed as 35%; with U-2 OS shRb cell (setting [2]) it was 62%; in the experiment on U-2 OS cell (setting [3]), 20%; in the experiment with U-2 OS cell (setting [4]), 29%. Also, the “G2/M (%)” value turned out to be 45% in the experiment on U-2 OS shRb cell (setting [1]), 23% in the experiment with U-2 OS shRb cell (setting [2]), 68% with U-2 OS cell (setting [3]) and 66% in the experiment on U-2 OS cell (setting [4]). Also, the “S (%)” value amounted to 19% in the experiment on U-2 OS shRb cell (setting [1]), 16% in the experiment on U-2 OS shRb cell (setting [2]), 11% in the experiment on U-2 OS cell (setting [3]) and 5.4% in the experiment with U-2 OS cell (setting [4]). Besides, the cell cycle arrest result in the experiment with U-2 OS shRb cell (10 nM doxorubicin, at 24 hours after the treatment) is on record as “arrested in the G2/M phase”; with U-2 OS cell (at 24 hours after the treatment), “arrested in the G2/M phase”; in the experiment on U-2 OS cell (at 48 hours after the treatment), “arrested in the G2/M phase”. Moreover, the G2/M phase arrest result in the experiment on U-2 OS shRb cell (10 nM doxorubicin, at 48 hours after the treatment) is “not maintained”.
